According to a melting point compilation (Tetko et al.; mined from patent text by program, amines drawn as free bases though some values may be those of a salt):

Row | melting point [°C] | Structure (SMILES)
1 | 132 to 134 | COc1cc([N+](=O)[O-])ccc1-c1cnn(C)c1
2 | 256 | Oc1ccc(-c2nnc(-c3ccccc3)o2)cc1
3 | 129 to 130 | O=C1NCC(C(F)(F)F)C(=O)N1Cc1ccccc1 (centres undefined)
4 | 127 to 128 | CC(C)(C)OC(=O)NC(=N)c1ccc(C(=O)NCCC(=O)OCc2ccccc2)cc1
5 | 225 | CN1C(=O)C(C2OC(=O)c3ccccc32)N(C)C(=O)C1Cc1ccccc1 (centres undefined)
6 | 78 to 90 | CCCNC(=O)C(C)(C)Cc1ccc2c(c1)c(Cc1ccc(C(=O)O)cc1OC)cn2CCC
7 | > 250 | Cc1cc(-c2ccc(C(F)(F)F)cc2)cc(-c2ccnc(-c3cccc(S(N)(=O)=O)c3)n2)n1
8 | 159 to 160 | CCCCC(=O)Nc1c(C(=O)c2cccc(Cl)c2)[nH]c2cc(Cl)ccc12
9 | 88 to 90 | N#CS/C=C\C(=O)N1CCCCC1
10 | 248 to 249 | CCCC[C@@H](C)[C@@H](O)[C@H](NC)C(=O)O
11 | 244 | CC(C(=O)O)c1cccc(C(=O)c2cc3cc(C(=O)O)sc3s2)c1 (centres undefined)
12 | 168 to 170 | OCC1(c2ccc(Cl)cc2)CC1c1ccc(-c2ccccc2)cc1 (centres undefined)
13 | 58 to 59 | C[C@H](Cn1ncc2ccc3c(c21)C=CCO3)O[Si](C)(C)C(C)(C)C
14 | 225 to 226 | Cc1nc(-n2ccc3c(OCc4ccccc4)cccc3c2=O)sc1C(=O)NCc1ccccc1
15 | 103 to 105 | CCOC(=O)Cc1c(C)n(Cc2ccccc2)c2cccc(OCc3coc(-c4ccccc4)n3)c12
16 | 45 | CCOC(=O)CC(C)(O)c1ccc(C2CCCCC2)cc1 (centres undefined)
17 | 91 to 103 | COC(=O)C1=C(C)NC(C)=C(C(=O)OCCCCN(C)CCC(c2ccccc2)c2ccccc2)C1c1cccc([N+](=O)[O-])c1 (centres undefined)
18 | 246 to 247 | CCNC(=O)Nc1cc(-c2c(-c3ccc(F)c(C)c3)nc3cc(C(C)(C)C)c(Cl)nn23)ccn1
19 | 185 to 187 | CC(C)Nc1nc2ccccc2n2c(C(F)(F)F)nnc12
20 | 183 to 186 | N#Cc1c(N2CCc3ccccc3CC2)[nH]c(=O)[nH]c1=O
21 | 168 to 170 | Cc1ccc(C)c(CN2CCN(C)CC(NC(=O)c3n[nH]c4ccccc34)C2)c1 (centres undefined)
22 | 146 to 148 | COc1ccc(-c2coc(C(=O)NNC(=O)c3ccc(O)c(C#N)c3)c2-c2ccccc2)cc1
23 | 152 | Cc1ccc2c(Sc3cc(Cl)cc(Cl)c3)c(CCC(N)=O)[nH]c2c1
24 | 81 to 82 | CC(=O)CSC1=CC(=O)CC(c2ccccc2Cl)C1 (centres undefined)

Row | melting point [°C] | Structure (SMILES)
25 | 128 | Cc1cc(C)c(CCCC(C)(C)O)c(O)c1
26 | > 300 | Cc1ccn(-c2nccc3[nH]c(=O)ccc23)n1
27 | 109 to 112 | COCC(=O)N[C@@H]1CCOc2ccccc21
28 | 41 to 42 | N#CCNCCNCC#N
29 | 209 to 211 | O=C(O)c1cnn(-c2cccc(Cl)c2)c1Cl
30 | 130 to 135 | CCS(=O)(=O)c1ccc(SC2SCC(O)C(O)C2O)cc1 (centres undefined)
31 | 257 to 260 | O=C(Nc1ccc(C(=O)N2C=C3CC=CN3Cc3ccccc32)cc1)c1ccccc1F
32 | 171 to 176 | CC(O)=C(C#N)C(=O)Nc1ccc(OC(F)(F)F)cc1
33 | 134 to 136 | C[C@H](NS(=O)(=O)c1ccc2ccccc2c1)C(=O)Cl
34 | 215 to 216 | COc1ccc(C=CC(=O)Nc2ccccc2C(=O)O)cc1O
35 | 171 to 172 | O=C(O)COc1ccc2cc(-c3ccc(-c4ccccc4)n3Cc3ccccc3)ccc2c1
36 | 167 | Cc1ccc(-c2cc(CNc3cc(CNc4cc(-c5ccc(C)cc5)[nH]n4)n[nH]3)n[nH]2)cc1
37 | 81 to 84 | CCNC(=O)n1nc(Oc2ccc(F)cc2[N+](=O)[O-])cc1C
38 | 127 to 129 | CC(C)CC1(CC(=O)NO)C(=O)N(CCc2ccccc2)C(=O)N1C (centres undefined)
39 | 163 to 165 | CN(C)C(=O)c1cc(N2CCN([C@H]3CC[C@@H](c4cn(C)c5ccc(C#N)cc54)CC3)CC2)c2ncccc2c1
40 | 80 | CC(Br)C(=O)c1ccc(OCc2ccccc2)c(CO)c1 (centres undefined)
41 | 63 to 64 | CCOc1cc(C)c(CCl)c(C)c1C
42 | 55 to 56 | C=Cc1nc2cc(Br)ccc2o1
43 | 163 to 165 | CC(C)C[C@@H](NS(=O)(=O)c1ccc(N2CCC(c3ccccc3)CC2)cc1)C(=O)O
44 | 63 to 65 | CCCOc1ccc2c(c1)C(=O)C[C@H]2c1ccc2c(c1)OCO2
45 | 237 | O=C(O)c1ccc(-c2ccc(OCCCCO)c(-c3ccc(N4CCCC4)c(C(F)(F)F)c3)c2)cc1
46 | 88 to 89 | CCOC(=O)/C=C/c1cn(Cc2ccccc2)nc1OCc1ccccc1
47 | 203 to 205 | CS(=O)(=O)Nc1cccc(Nc2nc(OC3CCCC3)c3cc[nH]c3n2)c1
48 | 274 to 275 | O=c1cc(-c2ccc(O)c(-c3cccs3)c2)oc2ncccc12

Row | melting point [°C] | Structure (SMILES)
49 | 255 | C=C(C)C(=O)OC1c2nccnc2C(=O)N1c1ccc2ccc(Cl)nc2n1 (centres undefined)
50 | 114 to 116 | CCN(c1cc(Cl)ccc1C(=O)c1cnoc1C1CC1)S(C)(=O)=O
51 | 63 to 64 | CC(C)(C)[Si](OCCOc1ccc([N+](=O)[O-])cn1)(c1ccccc1)c1ccccc1
52 | 143 to 144 | Cc1nc(N2CC(Cc3ccccc3)CC2=O)sc1C(=O)NCc1ccccc1 (centres undefined)
53 | 145 | Cc1cc(=O)n(-c2ccc(Cl)cc2F)c(=O)n1C
54 | 86 to 88 | COc1cc(N2CCN(CCC3CN(C)C(=O)O3)CC2)cc(OC)c1OC (centres undefined)
55 | 114 to 116 | CCCC(=O)c1cnc2ccsc2c1Nc1ccccc1C
56 | 41.5 to 43 | CCCCCCCCCCCCCCCCSCC(CNS(=O)(=O)CCCCl)COC (centres undefined)
57 | 154 to 155 | Cn1cnc(S(=O)(=O)N2CCSCC2)c1
58 | 92 to 93 | COc1ccc2c(n1)c(CCNC(C)=O)c1n2CCCO1
59 | 146 to 148 | CN(C[C@H]1CC[C@H](c2nc3ccccc3[nH]2)CC1)C(=O)OCc1ccccc1
60 | 119 to 121 | COC(=O)c1cc(-c2ccc(OC)c(F)c2)nn(CC(C)C)c1=O
61 | 135 to 140 | CC(C)[C@H](NC(=O)[C@@H]1CCCN1C(=O)[C@@H](NC(=O)Cn1ccc(=O)n(CC(=O)O)c1=O)C(C)C)C(=O)c1nc2ccccc2o1
62 | 181 to 182 | CCCOc1ccccc1-c1nc2nc(NCCN(C)C)ncc2c(=O)[nH]1
63 | 30 | CC=C1OCC2(CO1)COC(=CC)OC2 (centres undefined)
64 | 117 to 119 | CCCc1c(OCC(O)COc2cccc([N+](=O)[O-])c2C#N)ccc(C(C)=O)c1O (centres undefined)
65 | 70 to 72 | O=C(NC/C=C\COc1cc(CN2CCCCC2)ccn1)c1csnn1
66 | 179 to 180 | COC(=O)c1ccc2[nH]cc(Cc3ccc(OCc4ccc5ccccc5n4)cc3)c2c1
67 | 94.7 | COc1ccc(C(F)(F)F)cc1NC(=O)CCl
68 | 210 to 213 | NNc1cc2c(nn1)CCN(C(=O)c1ccccc1F)C2
69 | 110 to 119 | CON=C(C(C)=C(ON)c1ccccc1C(=NOC)C(=O)OC)c1ccc(F)cc1F
70 | 206 | COc1ccccc1S(=O)(=O)C(C)(Cc1ccc2ncccc2c1)C(=O)NO (centres undefined)
71 | 129 to 131 | COc1c(N2C[C@@H](C)N[C@@H](C)C2)c(F)cc2c(=O)c(C(=O)O)cn([C@@H]3C[C@@H]3F)c12
72 | 135 to 136 | COC(=O)c1ccc(Oc2cc3c(cc2Br)C(C)(C)CCC3(C)C)cc1

Row | melting point [°C] | Structure (SMILES)
73 | 114 to 115 | CN1CCN(c2c3c(nc4cc(Cl)ccc24)CCN(C)C3)CC1
74 | 79 to 82.5 | CCCCCCn1c(C)cc(C)c(C(=O)O)c1=O
75 | 246 to 247 | Cc1ccc(NC(=O)c2cc(Cl)c(O)c(Cl)c2)c(O)c1
76 | 172 to 175 | O=C(Nc1ccccc1C(=O)O)OCc1ccccn1
77 | 246 | O=c1ccn([C@H]2[C@H](O)[C@H](O)CC[C@H]2O)c(=O)[nH]1 (racemic)
78 | 99 to 102 | COC(=O)C1CCc2c(oc3cccc(Cl)c23)C1 (centres undefined)
79 | 176 to 177 | O=C(O)C(=O)c1ccc(OCCOc2cc3ccccc3cc2OCCO)cc1
80 | 253 to 255 | CNCC1CN(c2c(F)cc3c(=O)c(C(=O)O)cn(C4CC4)c3c2Cl)CC1C (centres undefined)
81 | 48 to 51 | CCCC1(C(=O)NCCCCCO)c2ccccc2-c2ccccc21
82 | 128 to 131 | Cc1cc(N(C)CC(=O)N2CCN(Cc3ccc4c(c3)OCO4)CC2)ccc1Oc1ccc(NC(=O)c2ccc(C(F)(F)F)cc2)cn1
83 | 48 to 48.5 | CCOC(=O)c1cc(C)c(C(=O)OCC)n1C
84 | 227 to 232 | Cc1cc(-c2ccc(C(F)(F)F)nc2)cc(-c2cccc(-c3cccc(S(N)(=O)=O)c3)c2)n1
85 | 205 | Cc1c(C(=O)Nc2ccc(N3CCCC3)c(C#N)c2)cnn1-c1ccc(Cl)cc1
86 | 94 to 98 | COC(=O)[C@H](CCSC)NC(=O)c1ccc(NC(Cn2ccnc2)c2ccc(F)cc2)cc1-c1ccc(F)cc1 (some centres undefined)
87 | 197 to 198 | CC(C)(C)OC(=O)C(C1NC(C(=O)OCc2ccccc2)C2(CCSCC2)S1)N1C(=O)c2ccccc2C1=O (centres undefined)
88 | 241 to 242 | Cc1ccc(Nc2c(N)cc(C(=O)O)cc2S(N)(=O)=O)c(C)c1
89 | 231 to 233 | Cc1nc2c(cc1C(=O)NC(=N)N)CCCCC2COS(=O)(=O)O (centres undefined)
90 | 32 to 33 | CC1(C(=O)CC#N)CC1
91 | 3.5 to 4.5 | Cc1ccccc1N=C=Nc1ccccc1C
92 | 235 to 238 | Cn1nnnc1-c1cn(C)c2cc(N3CCOCC3)ccc2c1=O
93 | 104 to 110 | CCCCC1=NC2(CCCC2)C(=O)N1Cc1ccc(-c2ccccc2S(=O)(=O)Nc2onc(C)c2C)c(CN2CCC(C)(C)C2=O)c1
94 | 130 to 138 | CON=C(Nc1nc(C)cc(C)n1)NS(=O)(=O)c1ccccc1S(=O)(=O)OC

Row | Structure (SMILES) | melting point [°C]
95 | NCCc1c[nH]c2ccc(Cc3nnn(Cc4ccccc4)n3)cc12 | 181 to 183
96 | O=C(C(Cl)Cl)N1CCC2(CC1)OCCO2 | 102
97 | CN(C)C1(c2ccccc2)CCC(NC2c3ccccc3-c3ccccc32)CC1 (centres undefined) | 202 to 205
98 | CN1CCN(C(=O)OC2c3ccccc3C(=O)N2c2ccc3ccc(C#N)nc3n2)CC1 (centres undefined) | 266 to 268
99 | Cc1nc(Br)c2n1-c1ccc(Cl)cc1C(c1ccccc1F)=NC2 | 201 to 205
